According to article PMC5608272 (PLoS ONE, 2017):
Where two headings read alike, the source gives them in different places. Blank lines part the entries; values can stand above or below the molecule they belong to.

How the values were obtained:
mAb 80–2 = assay: Competition ELISA, mAb 80–2 binding to BSA-cGAMP; design: species or system mouse; settings: preincubated 1 hr; ATP, GTP at mM concentrations; in words
Method: After washing, plates were developed with substrate, the reaction was stopped with 2 N H2SO4 and OD was read at 450 nm. […] After incubation for 1 hr, plates were washed, incubated with secondary antibody, and developed as described above.

Human cGAS (aa 2–522) = target: T1, Human cGAS (aa 2–522) (Homo sapiens, UniProt Q8N884); assay: cGAS activity mass spectrometry assay (cGAMP production by LC-MS); type: biochemical; settings: for Km: other nucleotide fixed: ATP 1 mM, GTP 300 μM, read-out: apparent Km; for effect of metals on cGAS activity: 1 nM cGAS, 1 nM dsDNA, in words
T1 construct: Amino acids 2-522 of human MB21D1 (Uniprot ID: Q8N884); made in house; host or cells: Spodoptera frugiperda Sf-9 (baculovirus)
Method: cGAS activity was measured in buffer (10 mM Hepes, 140 mM NaCl, 0.01% Tween-20, 5 mM MgCl2, pH 7.5) containing 1 mM ATP, 0.3 mM GTP, 100 nM ISD DNA (45 bp dsDNA), and 100 nM cGAS in the presence or absence of test compounds. […] The reaction was incubated for 30 minutes at 37°C and stopped with the addition of 50 mM EDTA. […] An earlier version of the assay utilized the same buffer and nucleotide conditions but was conducted in the presence of 1 nM cGAS, 1 nM ISD DNA and carried out for 6 h at 37°C before being processed as described above.
50 μl of H2O was added to each 25 μl cGAS reaction (384 well format). The samples were mixed by briefly vortexing followed by a 10 min, 3000 g centrifugation at room temperature. […] 10 μl of sample was injected on to a 2x30 mm hypercarb column (Thermo Scientific) kept at 60°C with a flow rate of 0.8 ml/min and a loop sweep time of 20 s. Mobile phase A consisted of 10 mM Ammonium Acetate, pH 10, and Mobile phase B consisted of 90:10 (Acetonitrile:Acetone 1:1): 10 mM Ammonium Acetate pH 10 + 0.1% formic acid. […] ATP and GTP had the following optimized parameters: dp 99 ep 10 ce 64 cxp 10. […] The data was processed using Sciex's Multiquant 3.0.

[1] = tested on: dsDNA-induced IFN-beta expression; assay: Cellular cGAS assay: dsDNA-induced IFN-beta expression via luciferase reporter in THP-1 Dual cells; type: cell-based, human
Method: (§1) Cellular Assays. THP-1 Dual monocytes cells containing NF-κB-SEAP and IRF-Luc Reporter (InvivoGen cat # thpd-nfis) were plated at 1x10^5 cells/well in U bottom 96 well plates in 100μL RPMI media containing10% FBS. Tested compounds were diluted in 100% DMSO to stock concentration of 30 mM. The TBK1 inhibitor BX-795 was obtained from Sigma-Aldrich (cat#SML0694-5MG) and used as a positive control. Cells were pretreated with DMSO or compounds for 1 hr at room temperature, followed by Lipofectamine™ 2000 (Thermo Fisher cat# 11668027) transfection with salmon sperm DNA (InvivoGen cat# tlrl-sdef) at 100 ng/well. Cells were incubated for 12 hrs at 37 ^◦C in a 5% CO2 incubator followed by centrifugation at 1000 rpm for 5 min. Media was collected and Lucia luciferase was measured using Quanti-Luc substrate (InvivoGen cat# rep-qlc1) according to the manufacturer’s protocol. Viability of cells was assessed using Promega CellTiter Glo luminescent viability assay (Promega cat# G7570) according to the manufacturer’s protocol. All data points were normalized to the salmon sperm DNA-treated wells (without compound) and expressed as percent of signal.

truncated h-cGAS = target: T2, truncated h-cGAS (Homo sapiens, UniProt Q8N884); assay: STD 1H NMR cGAMP competition binding on truncated h-cGAS; settings: mixture with 2´,3´-cGAMP, in words
T2 construct: a previously crystalized cGAS construct beginning at residue 161 (cGAS161) (H. sapiens numbering)
Method: Nuclear Magnetic Resonance (NMR). All NMR spectra were collected on a Bruker Avance III series 600 MHz spectrometer equipped with a 1.7 mm micro cryoprobe. For fragment screening, the Pfizer fragment library (~3,200 fragments) was screened against 3 μM truncated h-cGAS in 20 mM hepes (pH 7.5) buffer containing 150 mM KCl and 1 mM TCEP, and no DNA. The concentration of each fragment was 300 µM, and each sample contains either five or ten fragments in the mixture. Saturation transfer difference (STD) spectra for each fragment mixture were collected and binders were identified by comparing their STD signals with 1D reference spectra of the fragments in the mixture.

[2] = Chemical stability observed on resynthesis; type: physicochemical; settings: upon attempted resynthesis, in words
cGAS [3] = target: T3, cGAS (Homo sapiens, UniProt Q8N884); assay: SPR binding to immobilized cGAS; settings: for Kd: absence of activating dsDNA, 4 °C
Method: SPR assays. SPR experiments were performed using NTA sensor chips in a BIACORE T200 (GE Healthcare). cGAS was immobilized to a final density ca 5000-10000 RU. Sample-dependent responses were subtracted from channel 1, which had neither Ni or protein immobilized on it. Data were further corrected by subtracting a zero-concentratio blank from all compounds. Compounds were injected for 30-60 s, dissociation was measured for 30-120 s at 60 μL/min, 4 °C. Experiments were performed in buffer contained 20 mM HEPES (pH 7.5), 150 mM KCl, 20 mM MgCl2, 1 mM TCEP and 1% DMSO. Samples were injected with a top concentration, followed by 2-fold dilutions, and a final blank over 12 injection points. […] Dissociation equilibrium constants (KD) were determined using a binary association model (T200 BIA Eval software).
Target sequence in this assay (Q8N884 whole entry): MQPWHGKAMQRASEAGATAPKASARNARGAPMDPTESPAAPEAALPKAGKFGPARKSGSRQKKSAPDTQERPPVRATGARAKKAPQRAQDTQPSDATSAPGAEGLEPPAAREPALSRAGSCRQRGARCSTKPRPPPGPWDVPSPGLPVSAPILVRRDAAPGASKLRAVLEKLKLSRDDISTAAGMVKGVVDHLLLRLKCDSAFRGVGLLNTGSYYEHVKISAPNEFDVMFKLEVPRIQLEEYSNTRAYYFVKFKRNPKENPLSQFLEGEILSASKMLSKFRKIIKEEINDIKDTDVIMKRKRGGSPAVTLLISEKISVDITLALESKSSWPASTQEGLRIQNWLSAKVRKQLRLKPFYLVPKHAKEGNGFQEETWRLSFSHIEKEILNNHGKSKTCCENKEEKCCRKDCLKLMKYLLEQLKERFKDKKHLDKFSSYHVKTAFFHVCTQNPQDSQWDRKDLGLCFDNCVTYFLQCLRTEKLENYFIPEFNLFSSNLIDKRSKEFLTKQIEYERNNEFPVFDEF

cGAS [4] = target: T3, cGAS; assay: Cy5-cGAMP fluorescence polarization assay of cGAS activity; type: biochemical; design: Amino acids 2-522 of human MB21D1 (Uniprot ID: Q8N884); made in house; host or cells: Spodoptera frugiperda Sf-9 (baculovirus)
Target sequence in this assay (Q8N884 2-522): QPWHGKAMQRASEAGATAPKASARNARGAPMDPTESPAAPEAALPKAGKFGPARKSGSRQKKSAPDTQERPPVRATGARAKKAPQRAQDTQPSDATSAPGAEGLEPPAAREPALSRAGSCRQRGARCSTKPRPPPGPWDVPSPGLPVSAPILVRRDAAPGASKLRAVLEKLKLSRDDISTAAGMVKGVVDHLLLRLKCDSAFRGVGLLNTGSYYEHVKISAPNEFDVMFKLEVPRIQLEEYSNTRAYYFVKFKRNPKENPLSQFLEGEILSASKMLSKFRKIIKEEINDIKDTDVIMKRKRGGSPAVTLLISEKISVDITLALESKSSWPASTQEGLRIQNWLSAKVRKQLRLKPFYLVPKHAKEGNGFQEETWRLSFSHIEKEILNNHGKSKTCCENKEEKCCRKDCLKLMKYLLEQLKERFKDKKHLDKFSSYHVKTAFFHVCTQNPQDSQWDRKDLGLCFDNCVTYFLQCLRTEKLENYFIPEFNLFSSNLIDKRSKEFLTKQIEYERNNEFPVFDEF

THP-1 Dual cells = assay: Cell viability, CellTiter Glo, THP-1 Dual cells; type: cell-based, human; settings: in words
Method: as §1

[5] = 1 mM ATP, 0.3 mM GTP, 100 nM ISD DNA, 100 nM cGAS, read-out: MS IC50
[6] = 1 mM ATP, 0.3 mM GTP, 100 nM ISD DNA, 100 nM cGAS, read-out: FP IC50

T1 sequence (Q8N884 2-522): as above
T2 sequence (Q8N884 161-522 limits assumed): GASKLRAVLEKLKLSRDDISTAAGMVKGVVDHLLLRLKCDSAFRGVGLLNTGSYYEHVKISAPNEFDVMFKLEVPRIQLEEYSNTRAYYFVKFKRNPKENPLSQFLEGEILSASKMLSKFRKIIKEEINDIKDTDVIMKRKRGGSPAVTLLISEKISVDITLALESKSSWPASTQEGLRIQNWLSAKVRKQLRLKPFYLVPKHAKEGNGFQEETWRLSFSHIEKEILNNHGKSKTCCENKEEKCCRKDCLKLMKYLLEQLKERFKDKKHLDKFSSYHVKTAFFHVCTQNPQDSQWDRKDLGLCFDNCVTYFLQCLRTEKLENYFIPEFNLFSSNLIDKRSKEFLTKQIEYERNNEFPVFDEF

Structure (SMILES): Nc1ncnc2c1ncn2[C@@H]1O[C@H](COP(=O)(O)OP(=O)(O)OP(=O)(O)O)[C@@H](O)[C@H]1O [ATP]
inhibition of mAb 80–2 binding to BSA-cGAMP (mAb 80–2): neither ATP nor GTP at mM concentrations inhibited the binding
Km (Human cGAS (aa 2–522)): 35 µM

IC50 ([1]; Homo sapiens, THP1-Dual, positive control, read-out: IC50, inhibition of IFN-β induction): ~0.06 µM
Structure (SMILES): O=C(NCCCNc1nc(Nc2cccc(NC(=O)N3CCCC3)c2)ncc1I)c1cccs1 [BX-395, reference compound]

competition with 2´,3´-cGAMP for interacting with cGAS (1H STD) (truncated h-cGAS): out competed 2´,3´-cGAMP
Kd (cGAS [3]): 171 µM
Structure (SMILES): Oc1cc(-c2ccccc2)nc2nnnn12 [Compound 15]
chemical stability [2]: not chemically stable and readily isomerizes via an open-ring azidopyrimidine

IC50 (Human cGAS (aa 2–522); [5]): 69 µM
IC50 (cGAS [4]; [6]): 125 µM
IC50 (cGAS [4]; text summary of Fig 3, spans MS and FP assay values, read-out: IC50, inhibition of cGAS functional activity): 69 to 125 µM
Kd (cGAS [3]): 78 µM
Structure (SMILES): CNC(=O)c1cnn2c(=O)cc(-c3ccccc3)[nH]c12 [Compound 16, N-methyl-7-oxo-5-phenyl-4,7-dihydropyrazolo[1,5-a]pyrimidine-3-carboxamide]

IC50 (Human cGAS (aa 2–522); [5]): 19 µM
IC50 (cGAS [4]; [6]): 15.1 µM
Kd (cGAS [3]): 12.5 µM
Structure (SMILES): O=C(NCCO)c1cnn2c(=O)cc(-c3ccccc3)[nH]c12 [Compound 17, N-(2-hydroxyethyl)-7-oxo-5-phenyl-4,7-dihydropyrazolo[1,5-a]pyrimidine-3-carboxamide]

Structure (SMILES): O=C(O)CNC(=O)c1cnn2c(=O)cc(-c3ccccc3)[nH]c12 [Compound 18, (7-oxo-5-phenyl-4,7-dihydropyrazolo[1,5-a]pyrimidine-3-carbonyl)glycine]
IC50 (Human cGAS (aa 2–522)): 21 µM
IC50 (cGAS [4]): 10.6 µM
Kd (cGAS [3]): 6.7 µM

IC50 (Human cGAS (aa 2–522); [5]): 8.1 µM
IC50 (cGAS [4]; [6]): 17.5 µM
Kd (cGAS [3]): 2.7 µM
Structure (SMILES): C[C@@H](CO)NC(=O)c1cnn2c(=O)cc(-c3ccccc3)[nH]c12 [Compound 19, (S)-N-(1-hydroxypropan-2-yl)-7-oxo-5-phenyl-4,7-dihydropyrazolo[1,5-a]pyrimidine-3-carboxamide]

Structure (SMILES): Nc1nc2c(ncn2[C@@H]2O[C@H](COP(=O)(O)OP(=O)(O)OP(=O)(O)O)[C@@H](O)[C@H]2O)c(=O)[nH]1 [GTP]
inhibition of mAb 80–2 binding to BSA-cGAMP (mAb 80–2): neither ATP nor GTP at mM concentrations inhibited the binding
Km (Human cGAS (aa 2–522)): 30 µM

Structure (SMILES): O=C(N[C@H]1CCCC[C@H]1C(=O)O)c1cnn2c(=O)cc(-c3ccccc3)[nH]c12 [PF-06928215, (1R,2S)-2-(7-oxo-5-phenyl-4,7-dihydropyrazolo[1,5-a]pyrimidine-3 carboxamido) cyclohexane-1-carboxylic acid]
effect on cell viability (THP-1 Dual cells): minimal effect on cell viability
activity on dsDNA-induced IFN-beta expression ([1]; salmon sperm DNA 12 hrs, in words): no activity
off rate kinetics (cGAS [3]; SPR sensorgram, in words): longer off rate kinetics than any other compound in this series

Structure (SMILES): [Cu][Br] [copper, CuBr]
effect of metals on cGAS activity (Human cGAS (aa 2–522)): very sensitive to inhibition

Structure (SMILES): CC(=O)[O-].CC(=O)[O-].[Pd+2] [palladium, Pd(OAc)2]
effect of metals on cGAS activity (Human cGAS (aa 2–522)): very sensitive to inhibition

Structure (SMILES): [Cl-].[Cl-].[Zn+2] [zinc, ZnCl2]
effect of metals on cGAS activity (Human cGAS (aa 2–522)): increased enzymatic activity
